Numbered stars: 1 amine (or outer) side, 2 acyl side, 3 side chain; on linkers, the order of the positions; unused ones are H or OH. Bridge positions count the residues as written; N and C are the ends. Square brackets hold non-standard residues; d marks the D form. Peptide text beside a SMILES is read from it. * marks the point of attachment. hTyr(3S-OH,4S-OH,3'-OSO3H) = N[C@H](C(=O)O)[C@H](O)[C@@H](O)c1ccc(O)c(OS(=O)(=O)O)c1; Orn(4R-OH,5R-OH) = O=C([C@H](C[C@@H](O)[C@@H](O)N[*:3])N[*:1])[*:2]; Pro(3S-OH,4S-Me) = C[C@H]1CN[C@H](C(=O)O)[C@H]1O; X1 = CCCCCOc1ccc(-c2cc(-c3ccc(C(=O)*)cc3)no2)cc1; Gln(3R-OH) = NC(=O)C[C@@H](O)[C@H](N)C(=O)O; Hyp = O=C(O)[C@@H]1C[C@@H](O)CN1

The target in test [1] is T1, Broad substrate specificity ATP-binding cassette transporter ABCG2 (Homo sapiens, UniProt Q9UNQ0).
T1 sequence (Q9UNQ0 whole entry): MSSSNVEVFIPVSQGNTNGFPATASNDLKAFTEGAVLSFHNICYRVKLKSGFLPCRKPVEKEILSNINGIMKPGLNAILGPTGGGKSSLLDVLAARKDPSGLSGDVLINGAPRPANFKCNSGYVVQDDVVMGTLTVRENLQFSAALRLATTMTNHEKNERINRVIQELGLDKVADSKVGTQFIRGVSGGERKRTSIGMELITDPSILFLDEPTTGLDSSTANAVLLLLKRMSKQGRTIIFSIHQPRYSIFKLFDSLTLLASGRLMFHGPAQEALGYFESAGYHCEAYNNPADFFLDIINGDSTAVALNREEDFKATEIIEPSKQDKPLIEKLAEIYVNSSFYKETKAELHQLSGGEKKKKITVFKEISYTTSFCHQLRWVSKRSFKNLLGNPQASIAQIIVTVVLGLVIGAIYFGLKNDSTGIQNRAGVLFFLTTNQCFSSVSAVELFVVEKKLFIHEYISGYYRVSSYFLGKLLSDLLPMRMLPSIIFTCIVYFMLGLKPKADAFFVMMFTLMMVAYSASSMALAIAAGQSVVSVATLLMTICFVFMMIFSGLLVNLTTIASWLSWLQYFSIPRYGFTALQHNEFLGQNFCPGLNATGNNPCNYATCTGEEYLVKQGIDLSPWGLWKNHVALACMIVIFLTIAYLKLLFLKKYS
Put plainly: Inhibition of ABCG2 (unknown origin) expressed in human HEK293 cells assessed as reversal of BCRP-mediated mitoxantrone resistance and measured after 90 mins by FACSflow cytometry analysis. It is filed as cell-based. Background: Flow cytometry measures light scatter and fluorescence of single cells or particles in a stream.

Test [2] addresses T1, Broad substrate specificity ATP-binding cassette transporter ABCG2. As to the kind of experiment: Inhibition of human ABCG2 expressed in human HEK293 cells membrane vesicles mediated transport of 3[H]-MTX for 2 mins using [3H]-methotrexate as substrate by rapid filtration technique. It is filed as cell membranes, Membrane vesicle.
Test [3] has the same target. Put plainly: Inhibition of ABCG2 (unknown origin) expressed in human HEK293 cells membrane vesicles assessed inhibition of BCRP- mediated transport of 3[H]-E1S for 1 mins using [3H]-estrone sulfate as substrate by liquid scintillation counter analysis. It is filed as cell membranes, Membrane vesicle.
Test [4] has the same target. As to the kind of experiment: Inhibition of ABCG2 (unknown origin) expressed in human MCF7/MX cells mediated mitoxantrone efflux assessed as intracellular mitoxantrone level and measured after 30 mins by FACSflow cytometry analysis. In kind it is cell-based.
The target is the same in test [5]. As to the kind of experiment: Inhibition of ABCG2 (unknown origin) expressed in dog MDCK-II-BCRP cells incubated for 120 mins by transwell […] assay. It is filed as cell-based.
Test [6] has the same target. Put plainly: Inhibition of human ABCG2 expressed in human SAOS-2 cells mediated mitoxantrone efflux using mitoxantrone as substrate by flow cytometry. It is filed as cell-based.
Test [7] has the same target. Put plainly: Inhibition of ABCG2 (unknown origin) expressed in human HEK293 cells membrane vesicles assessed inhibition of BCRP- mediated transport of 3[H]-E1S for 1 mins using [3H]-estrone sulfate as substrate by rapid filtration technique. It is filed as cell membranes, Membrane vesicle.
The target is the same in test [8]. Put plainly: Inhibition of human ABCG2 expressed in dog MDCK-II-BCRP cells mediated pheophorbide A efflux preincubated with PhA followed by compound addition and measured after 60 mins by flow cytometry. It is filed as cell-based.
Test [9] has the same target. As to the kind of experiment: Inhibition of human ABCG2 expressed in dog MDCK-II-BCRP cells mediated pheophorbide A efflux and measured after 60 mins using pheophorbide A as fluorescent substrate by flow cytometry. It is filed as cell-based.
For test [10] the target is unchanged. Put plainly: Inhibition of ABCG2 (unknown origin) by flow cytometry.

`COCCOC(=O)C1=C(C)NC(C)=C(C(=O)OC(C)C)C1c1cccc([N+](=O)[O-])c1` (stereo unspecified) [NIMODIPINE]: the IC50 in test [1] stood at 13.7 µM.
In turn, `COCCCOc1ccnc(C[S+]([O-])c2nc3ccccc3[nH]2)c1C` (stereo unspecified) [RABEPRAZOLE] registered a 50% inhibitory concentration (IC50) in test [2] of 8.5 µM.
As to `C[C@@H]1[C@H](O)[C@@H](C)/C=C/C=C/C=C/C=C/C=C/C=C/C=C/[C@H](O[C@@H]2O[C@H](C)[C@@H](O)[C@H](N)[C@@H]2O)C[C@@H]2O[C@](O)(C[C@@H](O)C[C@@H](O)[C@H](O)CC[C@@H](O)C[C@@H](O)CC(=O)O[C@H]1C)C[C@H](O)[C@H]2C(=O)O` [AMPHOTERICIN B], in [3], the IC50 was determined as 127 µM.
As to `Cc1c(OCC(F)(F)F)ccnc1C[S+]([O-])c1nc2ccccc2[nH]1` (stereo unspecified) [LANSOPRAZOLE], the IC50 in test [2] was 14.4 µM.
Regarding `C[C@@H](c1nc(-c2ccc(C#N)cc2)cs1)[C@](O)(Cn1cncn1)c1cc(F)ccc1F` [ISAVUCONAZOLE], the half-inhibitory concentration (IC50) in test [3] amounted to 11 µM.
Still for that read-out and setting: under `CCC(C)n1ncn(-c2ccc(N3CCN(c4ccc(OCC5COC(Cn6cncn6)(c6ccc(Cl)cc6Cl)O5)cc4)CC3)cc2)c1=O` (stereo unspecified) [ITRACONAZOLE] stands 2 µM; under `CC[C@H](C)C[C@H](C)CCCCCCCCC(=O)N[C@H]1C[C@@H](O)[C@@H](NCCN)NC(=O)[C@@H]2[C@@H](O)CCN2C(=O)[C@H]([C@H](O)CCN)NC(=O)[C@H]([C@H](O)[C@@H](O)c2ccc(O)cc2)NC(=O)[C@@H]2C[C@@H](O)CN2C(=O)[C@H]([C@@H](C)O)NC1=O` [CASPOFUNGIN], 6 µM.
For `CCOC(=O)C1=C(C)NC(C)=C(C(=O)OC)C1c1cccc([N+](=O)[O-])c1` (stereo unspecified) [NITRENDIPINE], the concentration for half-maximal inhibition (IC50) in [4] is 21.1 µM.
`CC(=O)O[C@H]1C[C@@]2(C)[C@@H](C[C@@H](O)[C@H]3[C@@]4(C)CC[C@@H](O)[C@@H](C)[C@@H]4CC[C@@]32C)/C1=C(\CCC=C(C)C)C(=O)O` [FUSIDIC ACID]: the IC50 in test [5] worked out at 52 µM.
Regarding `OCCN(CCO)c1nc(N2CCCCC2)c2nc(N(CCO)CCO)nc(N3CCCCC3)c2n1` [DIPYRIDAMOLE], the half-maximal inhibitory concentration (IC50) in test [1] came out at 6.4 µM.
`CN(C)CC/C=C1/c2ccccc2Sc2ccc(Cl)cc21` [CHLORPROTHIXENE] yielded an IC50 in test [6] of 42 µM.
`CC(C)=CCC/C(C)=C/CNCCNC1C2CC3CC(C2)CC1C3` (stereo unspecified) [SQ109] came in with a 50% inhibitory concentration (IC50) in test [7] of 5.5 µM.
In turn, `Nc1nc(NC2CC2)c2ncn([C@H]3C=C[C@@H](CO)C3)c2n1` [ABACAVIR] registered a concentration for half-maximal inhibition (IC50) in [8] of 385 µM.
`CC(C)CN(C[C@@H](O)[C@H](Cc1ccccc1)NC(=O)O[C@H]1CCOC1)S(=O)(=O)c1ccc(N)cc1` registered an IC50 in test [8] of 181 µM.
The same measure, in the same setting: next, `Cc1cccc(C)c1OCC(=O)N[C@@H](Cc1ccccc1)[C@@H](O)C[C@H](Cc1ccccc1)NC(=O)[C@H](C(C)C)N1CCCNC1=O` [LOPINAVIR]: 7.6 µM.
In turn, `CN(C)C(=O)CCSC(SCCC(=O)O)c1cccc(/C=C/c2ccc3ccc(Cl)cc3n2)c1` (stereo unspecified) [MK-571] had an IC50 in test [6] of 50 µM.
Turning to `COC(=O)C1=C(C)NC(C)=C(C(=O)OCCN(C)Cc2ccccc2)C1c1cccc([N+](=O)[O-])c1` (stereo unspecified) [NICARDIPINE], the 50% inhibitory concentration (IC50) in [1] was found to be 4.8 µM.
The compound `CCOc1nc2cccc(C(=O)OC(C)OC(=O)OC3CCCCC3)c2n1Cc1ccc(-c2ccccc2-c2nnn[nH]2)cc1` (stereo unspecified) [CANDESARTAN CILEXETIL] had a half-inhibitory concentration (IC50) in [9] of 5 µM.
For the compound `CCCCCOc1ccc(-c2cc(-c3ccc(C(=O)N[C@H]4C[C@@H](O)[C@@H](O)NC(=O)[C@@H]5[C@@H](O)[C@@H](C)CN5C(=O)[C@H]([C@H](O)CC(N)=O)NC(=O)[C@H]([C@H](O)[C@@H](O)c5ccc(O)c(OS(=O)(=O)O)c5)NC(=O)[C@@H]5C[C@@H](O)CN5C(=O)[C@H]([C@@H](C)O)NC4=O)cc3)no2)cc1` [MICAFUNGIN] (X1-[Orn(4R-OH,5R-OH)]T[Hyp][hTyr(3S-OH,4S-OH,3'-OSO3H)][Gln(3R-OH)][Pro(3S-OH,4S-Me)]; lactam 1-C), in test [3], the IC50 is 21 µM.
As to `COC(=O)c1c(C)nc(C)c(C(=O)OC)c1-c1ccc(-c2c3nc(c(-c4ccc(-c5c(C(=O)OC)c(C)nc(C)c5C(=O)OC)cc4)c4ccc([nH]4)c(-c4ccc(-c5c(C(=O)OC)c(C)nc(C)c5C(=O)OC)cc4)c4nc(c(-c5ccc(-c6c(C(=O)OC)c(C)nc(C)c6C(=O)OC)cc5)c5ccc2[nH]5)C=C4)C=C3)cc1`, in test [10], the IC50 was 1.6 µM.
For the compound `CSc1ccc2c(c1)N(CCC1CCCCN1C)c1ccccc1S2` (stereo unspecified) [THIORIDAZINE], the IC50 in [7] turned out to be 6.6 µM.

Broadly, the IC50 is the concentration that inhibits the measured activity by half.

These data come from ChEMBL document CHEMBL5126555, “Targeting breast cancer resistance protein (BCRP/ABCG2): Functional inhibitors and expression modulators” (Eur J Med Chem, 2022).
